Measurements published in patent US20260000763A1, “Methods of Manufacturing Therapeutic Cells” (The Board of Trustees of the Leland Stanford Junior …, priority 2022, published 2026).

Tested on: HA-INO-CAR T cells
Test: Ciclopirox treatment of inosine-cultured HA-CAR T cells, memory subsets by flow cytometry
Format: cell-based, human
Details: 20 μM CPX for 24 h, day 16, CD8+ inosine-cultured HA-CAR T cells
Excerpt: Concatenated samples from n=3 donors. […] (Left) Dot plots of representative donor shown.

In the case of Cc1cc(C2CCCCC2)n(O)c(=O)c1 [CPX, ciclopirox], the “frequency of central memory-like cells” value is reported as “striking decrease”.
